Measured values reported in patent US12268672B2, “PPARδ activator” (JAPAN SCIENCE AND TECHNOLOGY AGENCY, priority 2018, dated 2025).
Counter-ions that a name gives are not always drawn.

What was measured:
PPARδ = assay: Luciferase assay with GAL4-Ppard and MH2004 reporter in CV1 cells; format: cell-based; details: for Light emission intensity (RLU) Average: 10 μM of each compound in DMSO, 12 hours; for Relative emission intensity Average: 10 μM of each compound, DMSO control defined as 1, n=3
Description: Among the compounds (1-1-4), the effects of compound (B-1), compound (B-2), and compound (B-3) on the transcriptional regulation of PPARδ were investigated. The effects on the transcriptional activity of PPARδ were measured by performing a luciferase assay on the cells treated with 10 μM of each compound dissolved in DMSO. Specifically, CV1 cells, which are cultured cells derived from African green monkey kidneys, were seeded on a 24-well plate (1×10^5 cells/well) and cultured until they became 70% confluent. DMEM containing 10% fetal bovine serum and 1% antibiotic was used as the culture medium. […] Then, the collected cells were lysed in a cell lysis buffer, suspended with a luminescent substrate (firefly luciferin), and the luminescence of the suspension was measured with a luminometer. In addition, the remaining suspension was mixed with Renilla luciferin and the amount of luminescence was measured with a luminometer. The result of the amount of light emitted by Renilla luciferin was used as the intrinsic control of gene transfer. Finally, the amount of luminescence of firefly luciferin was calculated as a light emission intensity (RLU) by dividing by the amount of luminescence of Renilla luciferin. The relative emission intensity of the reaction solution treated with each compound was determined as the transcriptional activation ability of PPARδ in each compound treatment, where the light emission intensity of the reaction solution to which an equal amount of DMSO was added (control) was defined as 1. The relative emission intensities were all 1.1 or more in the reaction solutions to which the compounds were added, and the transcriptional activity of PPARδ was increased. […] The effect of the obtained compound (A-4) on PPARδ activity was investigated. […] However, when the addition amount was 50 μM or more, the cells died and it was impossible to measure the transcription activity of PPARδ.

[1] = test system: angptl4, pdk4 and cpt1a genes; assay: Quantitative PCR of genes whose expression is induced by PPARδ in C2C12 cells; format: cell-based, mouse; details: 10 μM compound (A-4), 16 hours, relative to Hprt, n=3
Description: The effect of compound (A-4) on the expression of the gene whose expression is induced by PPARδ was investigated. Specifically, compound (A-4) was added to mouse skeletal muscle-derived myoblast cell line C2C12 cells, and the expression levels of the angptl4, pdk4 and the cpt1a genes, whose expression is induced by PPARδ (NPL 12), were measured. In addition, the Hprt gene was used as an endogenous control, and GW0742 was used as a positive control for PPARδ activation.
First, C2C12 cells were seeded on a 24-well plate (1×10^5 cells/well) and cultured until 80-90% confluent. DMEM containing 10% bovine serum and 1% antibiotic was used as the culture medium. After culturing for 36 hours, when the target cell density was reached, the entire medium was replaced with a serum-free DMEM medium containing each concentration of compound (A-4), and the cells were cultured for 16 hours (n=3). After culturing, the medium was discarded, a trizol reagent (manufactured by Invitrogen) for RNA extraction was directly added to each well to lyse the cells, and then the total RNA was extracted by ethanol precipitation. Using the obtained total RNA as a template, cDNA was synthesized using the reverse transcriptase “Superscript” (manufactured by […]).
Quantitative PCR was performed using the obtained cDNA as a template. The cDNA of the template, the primer that amplifies each gene to be measured, and the polymerase mix “ssoFast EvaGreen Supermix” (manufactured by Biorad) for quantitative PCR were mixed. Analysis was performed using a real-time PCR detection system “CFX connect (registered trademark)” (manufactured by Biorad).
From the obtained gene expression data, the expression level of each gene was divided by the expression level of the endogenous control gene to calculate the relative expression level.

CV1 cells = assay: Cell death observed in the CV1 luciferase assay; format: cell-based; details: transcription activity impossible to measure
Description: Specifically, CV1 cells, which are cultured cells derived from African green monkey kidneys, were seeded on a 24-well plate (1×10^5 cells/well) and cultured until they became 70% confluent. DMEM containing 10% fetal bovine serum and 1% antibiotic was used as the culture medium. After reaching the desired cell density, the entire medium was removed, and a mixture obtained by mixing 2 μL of MH2004 (plasmid encoding a firefly luciferase gene having a Gal4 activation sequence upstream: 100 ng/μL), 1 μL of pRL-CMV (plasmid encoding the Renilla reniformis luciferase gene directly under the CMV promoter: 100 ng/μL), 2 μL of GAL4-Ppard (plasmid encoding Gal4-DNA binding region fused with PPARδ gene: 100 ng/μL) and 1.5 μL of PEI (polyethylenimine: manufactured by Invitrogen) with 45 μL culture medium “Opti-MEM” (registered trademark) (manufactured by Thermo Fisher Scientific) was added to each well, and the cells were cultured for about 36 hours.
The effect of the obtained compound (A-4) on PPARδ activity was investigated. Specifically, a luciferase assay was carried out in the same manner as in Example 8 except that compound (A-4) dissolved in DMSO (0.1%) was added to the reaction system as a test substance (n=3). […] However, when the addition amount was 50 μM or more, the cells died and it was impossible to measure the transcription activity of PPARδ.

[2] = test system: recruitment of PPARδ to PPRE; assay: Chromatin immunoprecipitation of FLAG-PPARδ in differentiated C2C12-PPARδ cells; format: cell-based, mouse; details: 100 μM metformin or 1 μM GW501516, day 6 of differentiation, IgG control set as 1
Description: First, C2C12-PPARδ cells, in which FLAG-tagged PPARδ (FLAG-PPARδ) was constitutively over-expressed in C2C12 cells were prepared. […] The treated cells were subjected to chromatin immunoprecipitation (Conventional ChIP) using an antibody that recognizes the FLAG tag.

C2C12 cells = assay: Oxygen consumption rate (OCR) of C2C12 cells, extracellular flux analyzer; format: cell-based, mouse; details: 100 μM metformin or 10 μM GW501516 for 24 hours; for OCR after FCCP addition: compared to DMSO-treated cells
Description: PPARδ is known to induce the expression of lipid metabolism-related genes and enhance β-oxidation of fatty acids, especially in skeletal muscle. The PPARδ agonist is expected to have an effect of increasing mitochondrial activity. […] Specifically, using C2C12 cells, the oxygen consumption rate (OCR: Oxygen Consumption Rate) of the cells was measured by a cell metabolism-measuring device (extracellular flux analyzer manufactured by Agilemt Technologies Inc.).
In this metabolic measurement, four inhibitors were used to force changes in intracellular metabolism (FIG. 14). First, oligomycin, which inhibits Complex V of the electron transport chain, was added. […] Next, the uncoupling agent FCCP (Carbonyl cyanide-p-trifluoromethoxyphenylhydrazone) was added. FCCP forcibly discharges hydrogen ions in the mitochondrial membrane to the outside of the membrane to eliminate the proton concentration gradient. Since a proton concentration gradient is required to produce ATP, the TCA cycle and electron transport chain are maximally activated when the gradient is forcibly eliminated by FCCP. This makes it possible to measure the maximum respiration rate of cells. It is known that OCR at this time is further increased in cells in which fatty acid oxidation is enhanced. Finally, rotenone and antimycin were added. Rotenone inhibits the electron transport chain complex I, and antimycin inhibits complex III.

C57BL/6 mice = assay: Final exercise tolerance test on treadmill (NOS50); format: in vivo; details: 25 mg/kg intraperitoneal
Description: For the metformin-non-administered group, an equal volume of PBS was intraperitoneally administered instead of the metformin/PBS solution.
The training for the final exercise tolerance test, in which the speed at start was 15 m/min and increased by 1 m/min every 10 minutes, and the running time after the speed reached 20 m/min was 10 minutes (1 hour in total), was performed 5 times a week for a total of 4 weeks using a treadmill device.
First, twenty 10-week-old male C57BL/6 mice were divided into 4 groups (5 mice per group). […] In addition, in order to average the motivation for exercise and exercise preference of individual mice in each group, the first exercise tolerance test was performed after training acclimatization to rank the mice, and the mice were divided into 4 groups so that the test results were even. Furthermore, in the test after the training period, the exercise tolerance was evaluated in such a manner that the running time was set as the time until the number of electrode contacts during the test reached 50 (number of shocks: NOS50), the speed at the start was set as 15 m/min and increased by 1 m/min every 10 minutes, and when the speed reached the maximum speed of 30 m/min, the running at the maximum speed was performed until NOS50 was reached.

human PPARδ = human PPARδ (Homo sapiens, UniProt Q03181); details: in the presence of PPARδ complex (hPPARδ, PGC1α, RXRα)
endogenous AMPK = assay: Affinity purification using Met-beads and HepG2 cell extract, binding to AMPK; design: species or system human; details: HepG2 cell extract
endogenous PPARα = target: T1, endogenous PPARα (Homo sapiens, UniProt Q07869); assay: Affinity purification using Met-beads and HepG2 cell extract, binding to PPARα; details: HepG2 cell extract
T1 construct: endogenous in cells; host or cells: HepG2
T1 sequence (Q07869 1-468): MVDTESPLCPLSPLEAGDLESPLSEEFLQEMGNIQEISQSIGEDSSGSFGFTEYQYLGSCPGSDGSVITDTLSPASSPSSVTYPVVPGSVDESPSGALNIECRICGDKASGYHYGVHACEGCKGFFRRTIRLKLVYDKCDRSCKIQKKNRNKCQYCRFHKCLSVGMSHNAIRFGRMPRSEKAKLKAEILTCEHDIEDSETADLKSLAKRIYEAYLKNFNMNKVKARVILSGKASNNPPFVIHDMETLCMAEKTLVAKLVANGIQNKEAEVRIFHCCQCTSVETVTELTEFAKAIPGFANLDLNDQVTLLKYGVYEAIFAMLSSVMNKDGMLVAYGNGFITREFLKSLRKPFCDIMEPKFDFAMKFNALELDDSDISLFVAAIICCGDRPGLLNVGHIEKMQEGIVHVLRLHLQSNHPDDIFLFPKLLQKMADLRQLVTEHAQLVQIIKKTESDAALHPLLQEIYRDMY
Description: […] is a member of the nuclear receptor superfamily, with PPARα and […] as the other two family members. Affinity purification was performed using the Met-beads and HepG2 cell extract to verify the binding to endogenous PPARα.

Chain of human PPARδ (Q03181 whole entry): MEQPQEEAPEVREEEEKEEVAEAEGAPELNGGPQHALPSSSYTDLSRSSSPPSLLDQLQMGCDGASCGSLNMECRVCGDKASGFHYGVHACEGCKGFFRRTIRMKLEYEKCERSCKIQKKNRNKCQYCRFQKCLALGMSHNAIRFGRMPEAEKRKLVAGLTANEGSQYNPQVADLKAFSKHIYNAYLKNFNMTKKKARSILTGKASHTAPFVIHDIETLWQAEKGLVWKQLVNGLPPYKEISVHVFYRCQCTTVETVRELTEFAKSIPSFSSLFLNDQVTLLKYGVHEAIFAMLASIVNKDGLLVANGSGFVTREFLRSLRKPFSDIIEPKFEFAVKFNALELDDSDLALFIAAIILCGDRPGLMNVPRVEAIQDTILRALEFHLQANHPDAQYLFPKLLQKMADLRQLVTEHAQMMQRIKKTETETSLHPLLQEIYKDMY
Chain of human PPARδ (P19793 whole entry partner): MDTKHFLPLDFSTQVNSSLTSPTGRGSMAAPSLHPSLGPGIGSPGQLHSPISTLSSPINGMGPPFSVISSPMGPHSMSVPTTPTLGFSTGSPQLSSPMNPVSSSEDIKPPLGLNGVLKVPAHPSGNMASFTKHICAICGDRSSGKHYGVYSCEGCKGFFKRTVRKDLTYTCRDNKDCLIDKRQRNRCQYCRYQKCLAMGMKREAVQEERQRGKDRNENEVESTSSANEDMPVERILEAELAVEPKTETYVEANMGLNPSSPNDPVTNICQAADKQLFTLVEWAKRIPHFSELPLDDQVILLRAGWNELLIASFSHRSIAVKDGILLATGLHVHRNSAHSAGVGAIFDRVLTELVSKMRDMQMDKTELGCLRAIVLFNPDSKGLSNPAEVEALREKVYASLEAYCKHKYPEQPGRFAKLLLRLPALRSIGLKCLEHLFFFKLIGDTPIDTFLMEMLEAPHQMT
Chain of human PPARδ (Q9UBK2 whole entry partner): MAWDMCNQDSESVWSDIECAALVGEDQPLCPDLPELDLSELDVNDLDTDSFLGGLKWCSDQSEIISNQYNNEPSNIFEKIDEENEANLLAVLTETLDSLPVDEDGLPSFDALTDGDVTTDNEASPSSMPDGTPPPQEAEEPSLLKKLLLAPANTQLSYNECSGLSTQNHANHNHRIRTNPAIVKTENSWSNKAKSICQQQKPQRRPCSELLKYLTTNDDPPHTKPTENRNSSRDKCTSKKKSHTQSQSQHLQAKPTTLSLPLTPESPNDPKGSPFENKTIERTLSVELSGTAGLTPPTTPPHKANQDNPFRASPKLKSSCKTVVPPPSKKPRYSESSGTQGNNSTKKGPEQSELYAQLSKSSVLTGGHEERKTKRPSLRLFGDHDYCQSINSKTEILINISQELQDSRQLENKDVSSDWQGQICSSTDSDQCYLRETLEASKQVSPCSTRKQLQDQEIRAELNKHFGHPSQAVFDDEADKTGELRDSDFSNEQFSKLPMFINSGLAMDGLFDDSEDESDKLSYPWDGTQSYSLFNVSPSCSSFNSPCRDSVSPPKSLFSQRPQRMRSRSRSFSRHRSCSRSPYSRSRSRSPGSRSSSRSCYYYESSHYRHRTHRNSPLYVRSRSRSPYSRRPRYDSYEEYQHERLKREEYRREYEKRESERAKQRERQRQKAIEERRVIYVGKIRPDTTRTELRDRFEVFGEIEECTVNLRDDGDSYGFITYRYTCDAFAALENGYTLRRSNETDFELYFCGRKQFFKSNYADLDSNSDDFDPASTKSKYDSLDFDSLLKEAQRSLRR

SMILES | Light emission intensity (RLU) Average (PPARδ; n=3) | Relative emission intensity Average (PPARδ) | expression level of the angptl4 gene [1] | expression level of the cpt1a gene [1] | expression level of the pdk4 gene [1] | base OCR before the inhibitor treatment (C2C12 cells) | OCR after FCCP addition (C2C12 cells) | further results
N=C(N)NCc1ccc(COCc2ccccc2)cc1 [compound (B-1), N-({4-[(benzyloxy)methyl]phenyl}methyl) guanidine hydrobromide] | 250467 | 1.12 | – | – | – | – | – | –
Cc1cc(SCc2sc(-c3ccc(C(F)(F)F)c(F)c3)nc2C)ccc1CNC(=N)N [compound (A-4), 1-{4-[({2-[3-fluoro-4-(trifluoromethyl)phenyl]4-methylthiazole-5-yl}methyl)thio]-2-methylbenzyl}guanidine] | – | – | increased | increased | increased | – | – | addition amount at which the cells died (CV1 cells): ≥ 50 µM; transcriptional activity of PPARδ (relative transcriptional activation ability) (PPARδ; depending on the amount added, DMSO (0.1%), n=3): tended to increase
Cc1cc(SCc2sc(-c3ccc(C(F)(F)F)cc3)nc2C)ccc1OCC(=O)O [GW501516] | – | – | – | – | – | did not change | increase in OCR | recruitment of PPARδ in the vicinity of PPRE on promoters of Angptl4, Pdk4, Plin2 and Ucp3 genes [2]: recruited
Cc1cc(SCc2sc(-c3ccc(C(F)(F)F)c(F)c3)nc2C)ccc1OCC(=O)O [GW0742] | – | – | increased | increased | increased | – | – | –
CN(C)C(=N)N=C(N)N [metformin] | – | – | – | – | – | did not change | increase in OCR | exercise tolerance, metformin administration without training (C57BL/6 mice; 4 weeks, compared with control group): did not show an improvement in exercise tolerance; exercise tolerance, training + metformin administration (C57BL/6 mice; training 5 times a week for 4 weeks, compared with training group): higher exercise tolerance than the training group; activation ability compared with GW501516 (human PPARδ): about the same as that of GW501516; binding between metformin and AMPK (endogenous AMPK): not detected; binding between metformin and PPARα (endogenous PPARα): not detected
COc1cc(CNC(=N)N)ccc1OCc1ccccc1 [compound (B-3)] | 457033 | 2.04 | – | – | – | – | – | –
